Measured values: US20120083525A1, “COMPOSITION FOR PREVENTING OR TREATING OBESITY-RELATED DISEASES MEDIATED BY THE ACTIVATION OF AMPK AND INCLUDING 2,5-BIS-ARYL-3,4-DIMETHYLTETRAHYDROFURAN LIGNANS AS ACTIVE INGREDIENTS” (Amorepacific Corporation, priority 2009, published 2012)

Test system: high fat diet-induced obese model
Experiment: Anti-obesity effect in diet-induced obese (DIO) model, body weight change
Settings: 100 mg/kg/day oral
Experimental: For the oral administration, the substances were dissolved in a 5% aqueous solution of methyl cellulose (Sigma Co., USA). 7-week-old male C57BL/6J mice were prepared for test, with 10 heads per group. After an accommodation period of 1 week, the mice were kept in individual cages and maintained with 12/12-hr light-dark cycles (lighting from 7 am to 5 pm). […] The corresponding substance was orally administered once a day at regular hours (10 am) for 8 weeks. Body weight was measured once a week (11 am). After 8 weeks of administration, the body weight of the test groups and the control group was analyzed.

## COc1cc(C[C@H](C)[C@H](C)Cc2ccc3c(c2)OCO3)ccc1O [Macelignan, macelignan]
14 days
  Body weight change (g) after oral administration, 14 days: 4.00 g
21 days
  Body weight change (g) after oral administration, 21 days: 5.31 g
28 days
  Body weight change (g) after oral administration, 28 days: 6.52 g
35 days
  Body weight change (g) after oral administration, 35 days: 8.91 g
42 days
  Body weight change (g) after oral administration, 42 days: 9.70 g
49 days
  Body weight change (g) after oral administration, 49 days: 10.63 g
